Laboratory results taken from US4794188A, “Certain unsymmetrical quinolinyl ethers having anti-inflammatory and anti-allergic activity” (USV Pharmaceutical Corporation, priority 1985, dated 1988).

The compounds below were run against T1, 5-LOX (Homo sapiens, UniProt P09917) (assay: 5-LOX inhibition (5-LOX I50, Table I)).
T1 sequence (P09917 1-674): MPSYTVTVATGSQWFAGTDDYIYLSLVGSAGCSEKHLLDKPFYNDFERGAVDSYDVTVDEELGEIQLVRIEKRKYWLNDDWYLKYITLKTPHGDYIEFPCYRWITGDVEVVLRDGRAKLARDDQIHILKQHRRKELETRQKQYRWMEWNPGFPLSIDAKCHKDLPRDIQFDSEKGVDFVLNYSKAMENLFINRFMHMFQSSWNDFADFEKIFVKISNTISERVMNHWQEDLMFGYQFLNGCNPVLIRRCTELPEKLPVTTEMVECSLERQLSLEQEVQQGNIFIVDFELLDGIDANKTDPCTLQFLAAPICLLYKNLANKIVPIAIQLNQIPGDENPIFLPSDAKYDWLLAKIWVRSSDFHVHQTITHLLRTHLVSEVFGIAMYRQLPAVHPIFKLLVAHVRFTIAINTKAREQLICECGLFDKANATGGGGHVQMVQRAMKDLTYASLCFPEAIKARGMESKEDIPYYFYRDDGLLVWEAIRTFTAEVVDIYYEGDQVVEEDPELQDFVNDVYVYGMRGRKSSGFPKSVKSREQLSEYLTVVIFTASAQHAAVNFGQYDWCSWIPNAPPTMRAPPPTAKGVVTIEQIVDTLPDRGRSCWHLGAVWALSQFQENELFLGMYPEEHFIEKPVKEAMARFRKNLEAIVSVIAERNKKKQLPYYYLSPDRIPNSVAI
Type: biochemical

Row | SMILES | IC50
1 | CCCCC(C)(C)C(O)c1cccc(OCc2ccc3ccccc3n2)c1 (stereo not shown) | 0.27 µM
2 | CCCCC(C)(C)C(C)(O)c1cccc(OCc2ccc3ccccc3n2)c1 (stereo not shown) | 0.27 µM
3 | CCCCCC(=O)c1cccc(OCc2ccc3ccccc3n2)c1 | 0.15 µM
4 | CCCCCC(O)c1cccc(OCc2cccc(C#N)n2)c1 (stereo not shown) | 30 µM
5 | CCCCC(C)C(O)c1cccc(OCc2ccc3ccccc3n2)c1 (stereo not shown) | 0.2 µM
6 | CCCCCC(O)c1cccc(OCc2ccncc2)c1 (stereo not shown) | 3 µM
7 | OC(CCCCCOc1ccccc1)c1cccc(OCc2ccc3ccccc3n2)c1 (stereo not shown) | 0.6 µM
8 | CCCCCC(NC)c1cccc(OCc2ccccn2)c1 (stereo not shown) | 2.2 µM
9 | CCCCCC(O)c1cccc(OCc2cccnc2)c1 (stereo not shown) | 3 µM
10 | OC(CCCCCOc1cccc(Cl)c1)c1cccc(OCc2ccc3ccccc3n2)c1 (stereo not shown) | 0.6 µM
11 | CCCCCC(O)c1ccc(Oc2ccc3ccccc3n2)cc1 (stereo not shown) | 0.35 µM
12 | CCCCCC(O)c1cccc(OCc2ccccn2)c1 (stereo not shown) | 0.5 µM
13 | CCCCCC(O)c1ccc(OCc2ccc3ccccc3n2)cc1 (stereo not shown) | 0.35 µM
14 | CCCCCC(C)(O)c1cccc(OCc2ccccn2)c1 (stereo not shown) | 0.3 µM
15 | CCCCC=Cc1cccc(OCc2ccc3ccccc3n2)c1 [3-(CHCHC4 H9), 2-[3-(1-Hexenyl)phenoxymethyl]quinoline] | 2.4 µM
16 | CC(O)(CCCCCOc1ccccc1)c1cccc(OCc2ccc3ccccc3n2)c1 (stereo not shown) | 0.8 µM
17 | CCCCCC(O)c1cccc(OCc2cccc(C(=O)O)n2)c1 (stereo not shown) | 1.9 µM
18 | CCCCCC(C)(O)c1cccc(OCc2ccc3ccccc3n2)c1 (stereo not shown) | 0.1 µM
19 | CC(=O)CC(O)c1cccc(OCc2ccc3ccccc3n2)c1 (stereo not shown) | 0.18 µM
